Results published in PubChem BioAssay (NCI).
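The compound was tested at five concentrations on cells cultured in 96-well plates, with a 48-hour exposure period. TGI marks complete inhibition of growth.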

Tests used:
Experiment in all cases: DTP human tumour cell line panel, 48 h
[1] = test system: 786-0 renal
[2] = test system: A498 renal
[3] = test system: A549 NSCLC
[4] = test system: ACHN renal
[5] = test system: BT-549 breast
[6] = test system: CAKI-1 renal
[7] = test system: CCRF-CEM leukemia
[8] = test system: COLO 205 colon
[9] = test system: DU-145 prostate
[10] = test system: EKVX NSCLC
[11] = test system: HCC-2998 colon
[12] = test system: HCT-116 colon
[13] = test system: HCT-15 colon
[14] = test system: HL-60(TB) leukemia
[15] = test system: HOP-62 NSCLC
[16] = test system: HS 578T breast
[17] = test system: HT29 colon
[18] = test system: IGROV1 ovarian
[19] = test system: K-562 leukemia
[20] = test system: KM12 colon
[21] = test system: LOX IMVI melanoma
[22] = test system: M14 melanoma
[23] = test system: MALME-3M melanoma
[24] = test system: MCF7 breast
[25] = test system: MDA-MB-231 breast
[26] = test system: MDA-MB-435
[27] = test system: MDA-N
[28] = test system: MOLT-4 leukemia
[29] = test system: NCI-H226 lung
[30] = test system: NCI-H23 lung
[31] = test system: NCI-H460 lung
[32] = test system: NCI/ADR-RES ovarian
[33] = test system: OVCAR-3 ovarian
[34] = test system: OVCAR-4 ovarian
[35] = test system: OVCAR-5 ovarian
[36] = test system: OVCAR-8 ovarian
[37] = test system: PC-3 prostate
[38] = test system: RPMI-8226 leukemia
[39] = test system: RXF 393 renal
[40] = test system: SF-268 CNS
[41] = test system: SF-295 CNS
[42] = test system: SF-539 CNS
[43] = test system: SK-MEL-28 melanoma
[44] = test system: SK-MEL-5 melanoma
[45] = test system: SK-OV-3 ovarian
[46] = test system: SN12C renal
[47] = test system: SNB-19 CNS
[48] = test system: SNB-75 CNS
[49] = test system: SW-620 colon
[50] = test system: T-47D breast
[51] = test system: TK-10 renal
[52] = test system: U251 CNS
[53] = test system: UACC-257 melanoma
[54] = test system: UACC-62 melanoma
[55] = test system: UO-31 renal
[56] = test system: HOP-92 NSCLC
[57] = test system: NCI-H522 lung
[58] = test system: SK-MEL-2 melanoma

Compound `CC1(C)N[P+]2(Nc3ccccc3O2)OC1=O` (stereo not drawn) has a TGI [1] greater than 100 µM, a TGI [2] greater than 100 µM and a TGI [3] greater than 100 µM. It also gave a TGI [4] greater than 100 µM, a TGI [5] greater than 100 µM and a TGI [6] greater than 100 µM. It also gave a TGI [7] greater than 100 µM, a TGI [8] of 49.9 µM and a TGI [9] greater than 100 µM. For the same compound, the TGI [10] was greater than 100 µM, the TGI [11] was greater than 100 µM and the TGI [12] was greater than 100 µM. The TGI [13] was greater than 100 µM, the TGI [14] was greater than 100 µM and the TGI [15] was greater than 100 µM. The TGI [16] was greater than 100 µM, the TGI [17] was greater than 100 µM and the TGI [18] was greater than 100 µM. The TGI [19] was greater than 100 µM, the TGI [20] was greater than 100 µM and the TGI [21] was greater than 100 µM. For the same compound, the TGI [22] was greater than 100 µM, the TGI [23] was greater than 100 µM and the TGI [24] was greater than 100 µM. It also gave a TGI [25] greater than 100 µM, a TGI [26] of 33.2 µM and a TGI [27] of 38.7 µM. For the same compound, the TGI [28] was greater than 100 µM, the TGI [29] was greater than 100 µM and the TGI [30] was greater than 100 µM. For the same compound, the TGI [31] was greater than 100 µM, the TGI [32] was greater than 100 µM and the TGI [33] was greater than 100 µM. It also gave a TGI [34] greater than 100 µM, a TGI [35] greater than 100 µM and a TGI [36] greater than 100 µM. For the same compound, the TGI [37] was greater than 100 µM, the TGI [38] was greater than 100 µM and the TGI [39] was greater than 100 µM. It also gave a TGI [40] greater than 100 µM, a TGI [41] greater than 100 µM and a TGI [42] greater than 100 µM. It also gave a TGI [43] greater than 100 µM, a TGI [44] greater than 100 µM and a TGI [45] greater than 100 µM. It also gave a TGI [46] greater than 100 µM, a TGI [47] greater than 100 µM and a TGI [48] greater than 100 µM. For the same compound, the TGI [49] was greater than 100 µM, the TGI [50] was greater than 100 µM and the TGI [51] was greater than 100 µM. For the same compound, the TGI [52] was greater than 100 µM, the TGI [53] was greater than 100 µM and the TGI [54] was 64 µM. For the same compound, the TGI [55] was greater than 100 µM.

With `CN1CC2CC(C1)c1cccc(=O)n1C2` (stereo not drawn) the TGI [1] was greater than 100 µM, the TGI [3] was greater than 100 µM and the TGI [4] was greater than 100 µM. For the same compound, the TGI [5] was greater than 100 µM, the TGI [6] was greater than 100 µM and the TGI [8] was greater than 100 µM. For the same compound, the TGI [9] was greater than 100 µM, the TGI [10] was greater than 100 µM and the TGI [11] was greater than 100 µM. For the same compound, the TGI [12] was greater than 100 µM, the TGI [13] was greater than 100 µM and the TGI [15] was greater than 100 µM. The TGI [56] was greater than 100 µM, the TGI [16] was greater than 100 µM and the TGI [17] was greater than 100 µM. The TGI [18] was greater than 100 µM, the TGI [20] was greater than 100 µM and the TGI [21] was greater than 100 µM. The TGI [22] was greater than 100 µM, the TGI [23] was greater than 100 µM and the TGI [24] was greater than 100 µM. The TGI [25] was greater than 100 µM, the TGI [26] was greater than 100 µM and the TGI [27] was greater than 100 µM. For the same compound, the TGI [30] was greater than 100 µM, the TGI [31] was greater than 100 µM and the TGI [57] was greater than 100 µM. For the same compound, the TGI [32] was greater than 100 µM, the TGI [33] was greater than 100 µM and the TGI [34] was greater than 100 µM. It also gave a TGI [35] greater than 100 µM, a TGI [36] greater than 100 µM and a TGI [37] greater than 100 µM. It also gave a TGI [39] greater than 100 µM, a TGI [40] greater than 100 µM and a TGI [41] greater than 100 µM. The TGI [58] was greater than 100 µM, the TGI [44] was greater than 100 µM and the TGI [45] was greater than 100 µM. For the same compound, the TGI [46] was greater than 100 µM, the TGI [47] was greater than 100 µM and the TGI [48] was greater than 100 µM. For the same compound, the TGI [50] was greater than 100 µM, the TGI [51] was greater than 100 µM and the TGI [52] was greater than 100 µM. For the same compound, the TGI [53] was greater than 100 µM, the TGI [54] was greater than 100 µM and the TGI [55] was greater than 100 µM.
